Laboratory results: patent US10092590B2, “Composition of HMB and ATP and methods of use” (Metabolic Technologies, Inc., priority 2012, dated 2018)

Columns and labels:
[1] = Perceived Recovery Status (PRS) scale; type: in vivo, human; conditions: over the 12-week study
Procedure: (§1) Prior to the study, participants were randomly assigned to receive either 3 g per day of HMB Free Acid (HMB) (combined with food-grade orange flavors and sweeteners), 400 mg per day of ATP (PEAK ATP®; TSI, Inc.), a combination of both 3 g of HMB and 400 mg per day of ATP, or a placebo (food-grade orange flavors and sweeteners) divided equally into three servings daily with the first serving given 30 minutes prior to exercise and the remaining two servings daily with the mid-day and evening meals. On the non-training days participants were instructed to consume one serving with each of three separate meals. The supplementation was continued daily throughout the training and testing protocols. Each serving was formulated with 1 gram of HMB free acid to account for fill and emptying variation and achieve a minimum effective dosage of 0.800 grams. This dosage would be equivalent to a 1 gram Ca-HMB dosage.
Perceived Recovery Status (PRS) scale was measured at weeks 0, 4, 8, 9, 10, and 12 to assess subjective recovery during the training phases. The PRS scale consists of values between 0-10, with 0-2 being very poorly recovered and with anticipated declines in performance, 4-6 being low to moderately recovered and expected similar performance, and 8-10 representing high perceived recovery with expected increases in performance.

total testosterone = test: Serum total testosterone, ELISA; type: in vivo, human; conditions: week 9 (overreaching); mean ± SEM
Procedure: as §1, with “dosage. […]” for “dosage.”
(§2) Samples were thawed one time and analyzed in duplicate for each analyte. […] All hormones were measured in the same assay on the same day to avoid compounded interassay variance. […] Serum creatine kinase (CK) was measured using colorimetric procedures at 340 nm (Diagnostics Chemicals, Oxford, Conn.). Twenty-four hour urine collections were made and 3-methylhistine was determined by previously described methods (Rathmacher et al 1992 and Wilson et al, 2013).

creatine kinase (CK) = test: Serum creatine kinase (muscle damage), colorimetric; type: in vivo, human; conditions: week 9 (overreaching); mean ± SEM
Procedure: as §1, with “dosage. […]” for “dosage.”
as §2

[2] = tested on: skeletal muscle protein synthesis; conditions: acute ingestion of 2.4 grams; cited from earlier work
[3] = Skeletal muscle hypertrophy, ultrasonography quadriceps muscle thickness (VL and VI); type: in vivo, human; conditions: week 8 of study
cortisol = test: Serum cortisol, ELISA; type: in vivo, human; conditions: week 9 (overreaching); mean ± SEM
Procedure: as §1, with “dosage. […]” for “dosage.”
as §2

[4] = Body composition by dual x-ray absorptiometry (weight, lean body mass, fat); type: in vivo, human

Compound	effect on PRS [1]	Total Testosterone (total testosterone)	CK (creatine kinase (CK))	decrease in protein breakdown [2]	increase in skeletal muscle protein synthesis [2]	Quad (quadriceps muscle thickness) [3]	Cortisol (cortisol)	DXA LBM ([4]; week 4 of study)	DXA Fat ([4]; week 8 of study)	DXA LBM ([4]; week 8 of study)
Nc1ncnc2c1ncn2[C@@H]1O[C@H](COP(=O)(O)OP(=O)(O)OP(=O)(O)O)[C@@H](O)[C@H]1O [ATP, Adenosine-5′-triphosphate]	no main effect									
CC(C)(O)CC(=O)O [HMB-FA, β-hydroxy-β-methylbutyric acid]		752 ± 61 ng/dL	288 ± 18 IU/L	−56%	+70%	56.0 ± 1.4 mm	19.6 ± 1.1 µg/dL	69.2 ± 2.7 kg	15.9 ± 1.5 %	71.3 ± 2.7 kg
